From PubChem BioAssay AID1963853 (Molecular Pharmacology Branch, DTP, NCI, 2024)

System: 266295-075-R-J1-PDC spheroid viability
Test: Anticancer human tumor 266295-075-R-J1-PDC patient-derived head and neck squamous carcinoma cell line growth inhibition [POLQ]
Details: spheroids with HUVEC and MSC; for IC50: curve of first compound; for viability, T/C: stronger effect = lower value
How it was run: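 Complex spheroid viability model combining PDC tumour cells with endothelial (HUVEC) and MSC stromal cells. Novobiocin, ART-558 or RP6685 were tested singly and in combination with standard and investigational anticancer drugs. Each was titrated in half-log steps from near clinical Cmax, or from 10 microM where Cmax was unknown.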

[1] = second compound 0.0316 µM, first compound 0.00316 µM
[2] = second compound 0.0316 µM, first compound 0.01 µM
[3] = second compound 0.0316 µM, first compound 0.0316 µM
[4] = second compound 0.0316 µM, first compound 0.1 µM
[5] = second compound 0.1 µM, first compound 0.00316 µM
[6] = second compound 0.1 µM, first compound 0.01 µM
[7] = second compound 0.1 µM, first compound 0.0316 µM
[8] = second compound 0.1 µM, first compound 0.1 µM
[9] = second compound 0.316 µM, first compound 0.00316 µM
[10] = second compound 0.316 µM, first compound 0.01 µM
[11] = second compound 0.316 µM, first compound 0.0316 µM
[12] = second compound 0.316 µM, first compound 0.1 µM
[13] = second compound 1 µM, first compound 0.00316 µM
[14] = second compound 1 µM, first compound 0.01 µM
[15] = second compound 1 µM, first compound 0.0316 µM
[16] = second compound 1 µM, first compound 0.1 µM
[17] = second compound 3.16 µM, first compound 0.00316 µM
[18] = second compound 3.16 µM, first compound 0.01 µM
[19] = second compound 3.16 µM, first compound 0.0316 µM
[20] = second compound 3.16 µM, first compound 0.1 µM
[21] = second compound 10 µM, first compound 0.00316 µM
[22] = second compound 10 µM, first compound 0.01 µM
[23] = second compound 10 µM, first compound 0.0316 µM
[24] = second compound 10 µM, first compound 0.1 µM
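Note: spheroids exposed to compounds for seven days before readout.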

In the case of `Cn1ncnc1[C@H]1c2n[nH]c(=O)c3cc(F)cc(c23)N[C@@H]1c1ccc(F)cc1` + Cc1cccc(N(C)C(=O)C2C(O)CCN2c2nc(C)cc(C(F)(F)F)c2C#N)c1, the IC50 (second compound 0.0316 µM) is reported as over 100 nM, the IC50 (second compound 0.1 µM) is reported as over 100 nM and the IC50 (second compound 0.316 µM) is reported as over 100 nM. For the same compound, the IC50 (second compound 1 µM) was over 100 nM, the IC50 (second compound 3.16 µM) was over 100 nM and the IC50 (second compound 10 µM) was over 100 nM. It also gave a viability, T/C (second compound 0.0316 µM, first compound 0.000316 µM) of 88.2%, a viability, T/C (second compound 0.0316 µM, first compound 0.001 µM) of 93.7% and a viability, T/C [1] of 84.3%. The viability, T/C [2] was 109%, the viability, T/C [3] was 100% and the viability, T/C [4] was 96.5%. It also gave a viability, T/C (second compound 0.1 µM, first compound 0.000316 µM) of 99.4%, a viability, T/C (second compound 0.1 µM, first compound 0.001 µM) of 104% and a viability, T/C [5] of 85.4%. The viability, T/C [6] was 115%, the viability, T/C [7] was 90% and the viability, T/C [8] was 87.9%. It also gave a viability, T/C (second compound 0.316 µM, first compound 0.000316 µM) of 108%, a viability, T/C (second compound 0.316 µM, first compound 0.001 µM) of 99.2% and a viability, T/C [9] of 99.1%. It also gave a viability, T/C [10] of 104%, a viability, T/C [11] of 95.7% and a viability, T/C [12] of 99.7%. For the same compound, the viability, T/C (second compound 1 µM, first compound 0.000316 µM) was 103%, the viability, T/C (second compound 1 µM, first compound 0.001 µM) was 122% and the viability, T/C [13] was 89%. The viability, T/C [14] was 97.1%, the viability, T/C [15] was 113% and the viability, T/C [16] was 75.8%. It also gave a viability, T/C (second compound 3.16 µM, first compound 0.000316 µM) of 94.1%, a viability, T/C (second compound 3.16 µM, first compound 0.001 µM) of 96.7% and a viability, T/C [17] of 85.2%. The viability, T/C [18] was 118%, the viability, T/C [19] was 104% and the viability, T/C [20] was 104%. It also gave a viability, T/C (second compound 10 µM, first compound 0.000316 µM) of 119%, a viability, T/C (second compound 10 µM, first compound 0.001 µM) of 104% and a viability, T/C [21] of 101%. The viability, T/C [22] was 105%, the viability, T/C [23] was 109% and the viability, T/C [24] was 114%.
In the case of `C=CCn1c(=O)c2cnc(Nc3ccc(N4CCN(C)CC4)cc3)nc2n1-c1cccc(C(C)(C)O)n1` + Cc1cccc(N(C)C(=O)C2C(O)CCN2c2nc(C)cc(C(F)(F)F)c2C#N)c1, the IC50 (second compound 0.0316 µM) is reported as over 1000 nM, the IC50 (second compound 0.1 µM) is reported as over 1000 nM and the IC50 (second compound 0.316 µM) is reported as over 1000 nM. It also gave an IC50 (second compound 1 µM) of over 1000 nM, an IC50 (second compound 3.16 µM) of over 1000 nM and an IC50 (second compound 10 µM) of over 1000 nM. For the same compound, the viability, T/C [1] was 97.4%, the viability, T/C [2] was 97.7% and the viability, T/C [3] was 112%. It also gave a viability, T/C [4] of 101%, a viability, T/C (second compound 0.0316 µM, first compound 0.316 µM) of 80% and a viability, T/C (second compound 0.0316 µM, first compound 1 µM) of 62.5%. The viability, T/C [5] was 101%, the viability, T/C [6] was 115% and the viability, T/C [7] was 111%. The viability, T/C [8] was 127%, the viability, T/C (second compound 0.1 µM, first compound 0.316 µM) was 79.4% and the viability, T/C (second compound 0.1 µM, first compound 1 µM) was 63%. For the same compound, the viability, T/C [9] was 119%, the viability, T/C [10] was 116% and the viability, T/C [11] was 99.7%. It also gave a viability, T/C [12] of 131%, a viability, T/C (second compound 0.316 µM, first compound 0.316 µM) of 81.7% and a viability, T/C (second compound 0.316 µM, first compound 1 µM) of 64.7%. For the same compound, the viability, T/C [13] was 114%, the viability, T/C [14] was 104% and the viability, T/C [15] was 119%. The viability, T/C [16] was 78.4%, the viability, T/C (second compound 1 µM, first compound 0.316 µM) was 77.4% and the viability, T/C (second compound 1 µM, first compound 1 µM) was 63.6%. The viability, T/C [17] was 118%, the viability, T/C [18] was 93.6% and the viability, T/C [19] was 91.6%. For the same compound, the viability, T/C [20] was 116%, the viability, T/C (second compound 3.16 µM, first compound 0.316 µM) was 68.8% and the viability, T/C (second compound 3.16 µM, first compound 1 µM) was 71.5%. It also gave a viability, T/C [21] of 137%, a viability, T/C [22] of 117% and a viability, T/C [23] of 102%. For the same compound, the viability, T/C [24] was 128%, the viability, T/C (second compound 10 µM, first compound 0.316 µM) was 87.7% and the viability, T/C (second compound 10 µM, first compound 1 µM) was 81.8%.
